This passage reports IC50 results from patent publication US12312370B2, “Immunoproteasome inhibitors” (Principia Biopharma Inc., priority 2017, dated 2025).

In assay [1] the target is immunoproteasome LMP7/B5i subunit (Homo sapiens, UniProt P28062). The assay is described as follows: Caliper-based proteasome enzymatic activity assay, LMP7. Type of assay: biochemical. As to conditions: human recombinant immunoproteasome 0.3 nM, FAM-labeled peptide substrate 1 μM, rt 3 h; read-out: LMP7 subunit IC50.
The target in assay [2] is constitutive proteasome β5c unit (Homo sapiens, UniProt P28074). The assay is described as follows: Caliper-based proteasome enzymatic activity assay, β5c. The class given is biochemical. As to conditions: human recombinant constitutive proteasome 0.3 nM, FAM-labeled peptide substrate 1 μM, rt 3 h; read-out: β5c subunit IC50.

With `CC(C)(C=C(C#N)C(=O)N1CCCC[C@H](OC(=O)N[C@@H](Cc2ccccc2)B(O)O)C1)N1CCC(F)(F)C1` [Example 106, ((R)-1-(((((S)-1-(2-cyano-4-(3,3-difluoropyrrolidin-1-yl)-4-methylpent-2-enoyl)azepan-3-yl)oxy)carbonyl)amino)-2-phenylethyl)boronic acid], the IC50 in assay [1] came out at 2.5 nM; in assay [2], 2660 nM.
On the same counts, the results for `COC(=O)N1CCN(C(C)(C)C=C(C#N)C(=O)N2CCCC[C@@H](OC(=O)N[C@@H](Cc3ccccc3)B(O)O)C2)CC1` [Example 107, ((R)-1-(((((R)-1-(2-cyano-4-(4-(methoxycarbonyl)piperazin-1-yl)-4-methylpent-2-enoyl)azepan-3-yl)oxy)carbonyl)amino)-2-phenylethyl)boronic acid] are 1 nM and 1070 nM.
On to `COC(=O)N1CCN(C(C)(C)C=C(C#N)C(=O)N2CCCC[C@H](OC(=O)N[C@@H](Cc3ccccc3)B(O)O)C2)CC1` [Example 108, ((R)-1-(((((S)-1-(2-cyano-4-(4-(methoxycarbonyl)piperazin-1-yl)-4-methylpent-2-enoyl)azepan-3-yl)oxy)carbonyl)amino)-2-phenylethyl)boronic acid], for which the IC50 in assay [1] was 1.2 nM; in assay [2] it was 3000 nM.
As to `CC(C)(C=C(C#N)C(=O)N1C[C@H](OC(=O)N[C@@H](Cc2ccccc2)B(O)O)[C@@H](F)C1)N1CCC(F)(F)C1` [Example 109, ((R)-1-(((((3S,4S)-1-(2-cyano-4-(3,3-difluoropyrrolidin-1-yl)-4-methylpent-2-enoyl)-4-fluoropyrrolidin-3-yl)oxy)carbonyl)amino)-2-phenylethyl)boronic acid], the half-maximal inhibitory concentration (IC50) was 3.5 nM in assay [1] and 621 nM in assay [2].
`C=CC(=O)N1C[C@H](OC(=O)N[C@@H](Cc2ccccc2)B(O)O)[C@@H](F)C1` [Example 110, ((R)-1-(((((3S,4S)-1-acryloyl-4-fluoropyrrolidin-3-yl)oxy)carbonyl)amino)-2-phenylethyl)boronic acid]: the IC50 in assay [1] was determined as 78.3 nM; in assay [2], 2840 nM.
`CC(C)(C=C(C#N)C(=O)N1C[C@H](F)[C@H](OC(=O)N[C@@H](Cc2ccccc2)B(O)O)C1)N1CCC(F)(F)C1` [Example 111, ((R)-1-(((((3R,4S)-1-(2-cyano-4-(3,3-difluoropyrrolidin-1-yl)-4-methylpent-2-enoyl)-4-fluoropyrrolidin-3-yl)oxy)carbonyl)amino)-2-phenylethyl)boronic acid]: the figures for the concentration for half-maximal inhibition (IC50) in assay [1] and in assay [2] were 1.9 nM and 140 nM, respectively.
As for `CC(C)(C=C(C#N)C(=O)N1CCC[C@H](NC(=O)N[C@@H](Cc2ccccc2)B(O)O)C1)N1CCC(F)(F)C1` [Example 112, ((R)-1-(3-((S)-1-(2-cyano-4-(3,3-difluoropyrrolidin-1-yl)-4-methylpent-2-enoyl)piperidin-3-yl)ureido)-2-phenylethyl)boronic acid], the IC50 in assay [1] turned out to be 143 nM; in assay [2] it was 2240 nM.
`CC(C)(C=C(C#N)C(=O)N1C[C@@H](F)[C@H](OC(=O)N[C@@H](Cc2ccccc2)B(O)O)C1)N1CCC(F)(F)C1` [Example 113, ((R)-1-(((((3R,4R)-1-(2-cyano-4-(3,3-difluoropyrrolidin-1-yl)-4-methylpent-2-enoyl)-4-fluoropyrrolidin-3-yl)oxy)carbonyl)amino)-2-phenylethyl)boronic acid]: the IC50 worked out at 2.3 nM in assay [1] and 520 nM in assay [2].
On the same counts, the results for `C[C@@H]1CN(C(C)(C)C=C(C#N)C(=O)N2C3CCC2(COC(=O)N[C@@H](Cc2ccccc2)B(O)O)CC3)C[C@H](C)O1` [Example 114, ((R)-1-((((7-(2-cyano-4-((2S,6R)-2,6-dimethylmorpholino)-4-methylpent-2-enoyl)-7-azabicyclo[2.2.1]heptan-1-yl)methoxy)carbonyl)amino)-2-phenylethyl)boronic acid] are 2.1 nM and 1670 nM.
On the same counts, the results for `C=CC(=O)N1C[C@H](F)[C@H](OC(=O)N[C@@H](Cc2ccccc2)B(O)O)C1` [Example 115, ((R)-1-(((((3R,4S)-1-acryloyl-4-fluoropyrrolidin-3-yl)oxy)carbonyl)amino)-2-phenylethyl)boronic acid] are 18.3 nM and 207 nM.
On the same counts, the results for `CC(C)(C=C(C#N)C(=O)N1C2CCC1(COC(=O)N[C@@H](Cc1ccccc1)B(O)O)CC2)N1CCOC2(CC2)C1` [Example 116, (R)-(1-((((7-(2-cyano-4-methyl-4-(4-oxa-7-azaspiro[2.5]octan-7-yl)pent-2-enoyl)-7-azabicyclo[2.2.1]heptan-1-yl)methoxy)carbonyl)amino)-2-phenylethyl)boronic acid] are 1.3 nM and 753 nM.
Turning to `CC(C)(C=C(C#N)C(=O)N1CCC[C@H](OC(=O)N[C@@H](CC2=CCCC2)B(O)O)C1)N1CCC(F)(F)C1` [Example 117, ((R)-1-(((((S)-1-(2-cyano-4-(3,3-difluoropyrrolidin-1-yl)-4-methylpent-2-enoyl)piperidin-3-yl)oxy)carbonyl)amino)-2-(cyclopent-1-en-1-yl)ethyl)boronic acid], the IC50 in assay [1] is 4.3 nM; in assay [2] it was over 5000 nM.
On the same counts, the results for `C[C@@H]1CN(C(C)(C)C=C(C#N)C(=O)N2C3CCC2(COC(=O)N[C@@H](Cc2ccccc2)B(O)O)CC3)CCO1` [Example 118, ((R)-1-((((7-(2-cyano-4-methyl-4-((R)-2-methylmorpholino)pent-2-enoyl)-7-azabicyclo[2.2.1]heptan-1-yl)methoxy)carbonyl)amino)-2-phenylethyl)boronic acid] are 1.9 nM and 1150 nM.
On the same counts, the results for `CC1(C)CN(C(C)(C)C=C(C#N)C(=O)N2C3CCC2(COC(=O)N[C@@H](Cc2ccccc2)B(O)O)CC3)CCO1` [Example 119, (R)-(1-((((7-(2-cyano-4-(2,2-dimethylmorpholino)-4-methylpent-2-enoyl)-7-azabicyclo[2.2.1]heptan-1-yl)methoxy)carbonyl)amino)-2-phenylethyl)boronic acid] are 1 nM and 685 nM.
The corresponding values for `COC(=O)N1CCN(C(C)(C)C=C(C#N)C(=O)N2CCC[C@H](OC(=O)N[C@@H](CC3=CCCC3)B(O)O)C2)CC1` [Example 120, ((R)-1-(((((S)-1-(2-cyano-4-(4-(methoxycarbonyl)piperazin-1-yl)-4-methylpent-2-enoyl)piperidin-3-yl)oxy)carbonyl)amino)-2-(cyclopent-1-en-1-yl)ethyl)boronic acid] are 11.6 nM and over 5000 nM.
Consider `CC(C)(C=C(C#N)C(=O)N1CCC[C@H](OC(=O)N[C@@H](CC2=CCCC2)B(O)O)C1)N1CCOCC1` [Example 121, ((R)-1-(((((S)-1-(2-cyano-4-methyl-4-morpholinopent-2-enoyl)piperidin-3-yl)oxy)carbonyl)amino)-2-(cyclopent-1 en-1-yl)ethyl)boronic acid], for which the IC50 in assay [1] is 7.8 nM; in assay [2], over 5000 nM.
On the same counts, the results for `C[C@H]1CN(C(C)(C)C=C(C#N)C(=O)N2C3CCC2(COC(=O)N[C@@H](Cc2ccccc2)B(O)O)CC3)CCO1` [Example 122, ((R)-1-((((7-(2-cyano-4-methyl-4-((S)-2-methylmorpholino)pent-2-enoyl)-7-azabicyclo[2.2.1]heptan-1-yl)methoxy)carbonyl)amino)-2-phenylethyl)boronic acid] are 2 nM and 1170 nM.
As for `C[C@H]1CN(C(C)(C)C=C(C#N)C(=O)N2C3CCC2(COC(=O)N[C@@H](Cc2ccccc2)B(O)O)CC3)C[C@H](C)O1` [Example 123, ((R)-1-((((7-(2-cyano-4-((2S,6S)-2,6-dimethylmorpholino)-4-methylpent-2-enoyl)-7-azabicyclo[2.2.1]heptan-1-yl)methoxy)carbonyl)amino)-2-phenylethyl)boronic acid], the IC50 worked out at 0.9 nM in assay [1] and 832 nM in assay [2].
On the same counts, the results for `C=CC(=O)N1C[C@@H](F)[C@@H](OC(=O)N[C@@H](Cc2ccccc2)B(O)O)C1` [Example 124, ((R)-1-(((((3S,4R)-1-acryloyl-4-fluoropyrrolidin-3-yl)oxy)carbonyl)amino)-2-phenylethyl)boronic acid] are 37.3 nM and over 5000 nM.
On the same counts, the results for `CC(C)(C=C(C#N)C(=O)N1C[C@@H](F)[C@@H](OC(=O)N[C@@H](Cc2ccccc2)B(O)O)C1)N1CCC(F)(F)C1` [Example 125, ((R)-1-(((((3S,4R)-1-(2-cyano-4-(3,3-difluoropyrrolidin-1-yl)-4-methylpent-2-enoyl)-4-fluoropyrrolidin-3-yl)oxy)carbonyl)amino)-2-phenylethyl)boronic acid] are 3.7 nM and 810 nM.
On the same counts, the results for `C[C@@H]1CN(C(C)(C)C=C(C#N)C(=O)N2C3CCC2(COC(=O)N[C@@H](Cc2ccccc2)B(O)O)CC3)C[C@@H](C)O1` [Example 126, ((R)-1-((((7-(2-cyano-4-((2R,6R)-2,6-dimethylmorpholino)-4-methylpent-2-enoyl)-7-azabicyclo[2.2.1]heptan-1-yl)methoxy)carbonyl)amino)-2-phenylethyl)boronic acid] are 1.3 nM and 967 nM.
Take `C[C@@H]1CN(C(C)(C)C=C(C#N)C(=O)N2CCCC[C@@H](OC(=O)N[C@@H](Cc3ccccc3)B(O)O)C2)C[C@H](C)O1` [Example 127, ((R)-1-(((((R)-1-(2-cyano-4-((2S,6R)-2,6-dimethylmorpholino)-4-methylpent-2-enoyl)azepan-3-yl)oxy)carbonyl)amino)-2-phenylethyl)boronic acid]: the IC50 in assay [1] was determined as 2.4 nM; in assay [2] it was 2420 nM.
With `C[C@H]1CN(C(C)(C)C=C(C#N)C(=O)N2CCCC[C@@H](OC(=O)N[C@@H](Cc3ccccc3)B(O)O)C2)C[C@H](C)O1` [Example 128, ((R)-1-(((((R)-1-(2-cyano-4-((2S,6S)-2,6-dimethylmorpholino)-4-methylpent-2-enoyl)azepan-3-yl)oxy)carbonyl)amino)-2-phenylethyl)boronic acid], the values for the 50% inhibitory concentration (IC50) in assay [1] and in assay [2] were 4.7 nM and 1350 nM, respectively.

The IC50 is the concentration at which inhibition is half-maximal.
